Measured values published in US20040219232A1, “Methods and compounds for treating malabsorption diseases and inflammatory conditions of the gastrointestinal tract” (Zengen, Inc., priority 2003, published 2004).
“Also recorded” adds a separate entry of the source. Where no end group is shown, it is not given here. [ ]: non-standard residue; d: D form. dNle = CCCC[C@@H](N)C(=O)O

How the values were obtained:
[1] = tested on: IL-6 production by gliadin-stimulated duodenal mucosa; assay: Gliadin-stimulated cytokine production by duodenal mucosa specimens incubated 24 h in vitro, with or without synthetic α-MSH; assay type: cell-based, human; conditions: co-incubation with α-MSH 10^−5 M, controls, untreated celiac and treated celiac patients (all groups), ELISA
Description: (§1) Four biopsy specimens from the distal duodenum were obtained during upper gastrointestinal endoscopy. Two of such specimens were fixed in 10% formalin and paraffin embedded for standard histological examination. The remaining two specimens from each subject were available for this research and were allocated for either 1) RT-PCR and immunohistochemical studies (N=20: 9 celiac, 7 celiac on diet, 4 normal); 2) cytokine production in vitro in the presence or absence of α-MSH(N=22: 11 celiac, 6 celiac on diet, 5 normal); or 3) cytokine production in vitro after gliadin stimulation in the presence or absence of α-MSH(N=25: 14 celiac, 6 celiac on diet, 5 normal).
(§2) A series of 47 specimen pairs were used to evaluate cytokine production by celiac mucosa in vitro and the influence of α-MSH on such production. […]
(§3) α-MSH was measured using a double-antibody radioimmunoassay (RIA) method (Eurodiagnostica, Malmo, Sweden); the sensitivity calculated from a decrease in binding of 2 SD in the zero standard was 4.8 pg/ml and the cross-reactivity with other POMC peptides (ACTH [1-24], ACTH [1-39], β-MSH, γ-MSH) is <0.002%. IL-1β, IL-6, and TNF-α were determined using commercial ELISA methods (Amersham Pharmacia Biotech, Little Chalfont, UK).
(§4) Values were expressed as means±SEM. […]

[2] = tested on: IL-1β, IL-6 and TNF-α production by celiac mucosa; assay: Spontaneous (non-stimulated) cytokine production by duodenal mucosa specimens incubated 24 h in vitro, with or without synthetic α-MSH; assay type: cell-based, human; conditions: α-MSH 10^−5 M in incubation medium, no gliadin
Description: as §1, §2, §3, §4

[3] = has been shown; no method given; cited from earlier work
[4] = compared with L-form tripeptide; cited from earlier work
[5] = Potency/efficacy of α-MSH fragments and derivatives compared to parent α-MSH (anti-inflammatory and/or antipyretic properties); conditions: discovered by the inventors; no method or data given
Description: It is contemplated that derivatives of α-MSH will have analogous function. It is understood that derivatives of α-MSH means functionally equivalent peptides. […] Thus, α-MSH derivative would include, among others, the partial segments of the 13 amino acid peptide. Specifically, α-MSH is composed of the following sequence of amino acids: SYSMEHFRWGKPV (SEQ ID. NO. 1). […] These derivatives of the parent α-MSH are functional equivalents.

[6] = tested on: fever; conditions: compared with α-MSH; cited from earlier work

For “SYSMEHFRWGKPV [α-MSH, 13 amino acid peptide produced by post-translational processing of pro-opiomelanocortin; synthetic peptide used in the tests]”, the “IL-6 production/release in supernatants of gliadin-stimulated duodenal specimens” value [1] was “significantly decreased; also recorded: substantial reduction; also recorded: significantly reduced; also recorded: statistically significant inhibition” and the “Non-stimulated 24 h production of IL-1β, IL-6 and TNF-α by celiac mucosa after addition of α-MSH” value [2] was “no change”.

For KPV, the “Potency/efficacy compared to parent α-MSH” value [3] is given as “as potent or more potent than the parent α-MSH”.

For Ac-[D-K11]-α-MSH 11-13-NH2, the “Potency relative to the L-form of the tripeptide α-MSH (11-13)” value [4] is listed as “same general potency”.

For “His-DNle-Arg-Trp-Phe-Lys-Pro-Val (H[dNle]RWFKPV)”, the “Potency over the parent α-MSH and its derivatives” value [5] was “increased potency”.

For [Nle^4,D-Phe^7]-α-MSH, the “Potency in reducing fever relative to the parent peptide α-MSH” value [6] is given as “approximately ten times more potent”.
